In article PMC5290327, “SC83288 is a clinical development candidate for the treatment of severe malaria” (Nature Communications, 2017):
In brackets after ≈: the same amount, converted by molar mass.

Tests used:
sst (non-selective) = experiment: Radioligand binding; conditions: control compound
Procedure: (§1) The study was carried out by Cerep (Celle l'Evescault, France). An in vitro pharmacological profiling panel was designed to detect potential high-risk clinical adverse drug reactions. The panel comprised of 54 targets.
(§2) The specific ligand binding to the receptors was defined as the difference between the total binding and the non-specific binding determined in the presence of an excess of unlabelled ligand. Results were expressed as a per cent of control specific binding and as a per cent inhibition of control specific obtained in the presence of the test compounds. Results showing an inhibition (or stimulation) >50% were considered to represent significant effects of the test compounds. […] The IC50 values were determined by non-linear regression analysis of the competition curves generated with mean replicate values using Hill equation curve fitting. The inhibition constants (Ki) were calculated using the Cheng Prusoff equation.

P. falciparum strain Dd2 = experiment: Growth inhibition assay, asexual blood stages; type: cell-based, Plasmodium falciparum; conditions: Plasmodium falciparum
[1] = tested on: Dd2 P. falciparum parasites; experiment: In vitro parasite reduction ratio assay (Sanz protocol); type: cell-based, Plasmodium falciparum
Dd2 SC81458 resistant = experiment: Growth inhibition assay; type: cell-based; conditions: Plasmodium falciparum
Procedure: (§3) To identify the mode of action/mechanism of resistance of SC81458 and […], a chemogenomic approach was used, whereby resistant parasites were obtained by in vitro drug pressure selection and subjected to whole-genome sequencing to identify the genetic basis of resistance. Three independent selections of Dd2 parasites at an initial population of 10^10 infected red blood cells (performed in 150 ml flasks, 2% haematocrit) were subjected to SC81458 or SC83288 at a starting concentration of 50 nM. […] Drug resistance was confirmed by measuring the IC50s, after two consecutive cycles in absence of the drug, using a SYBRGreen growth inhibition assay as previously described. After up to 200 days of drug pressure, the drug-resistant lines were clones by limiting dilution for single-cell isolation and genomic DNA was extracted using the DNeasy Blood&Tissue kit (Qiagen, USA) and subjected to ultra-deep sequencing.

Dd2 SC83288 resistant = experiment: Growth inhibition assay; type: cell-based; conditions: Plasmodium falciparum
Procedure: as §3

CXCR2 (IL-8B) (h) = target: T1, CXCR2 (IL-8B) (h) (Homo sapiens, UniProt P25025); experiment: Radioligand binding; conditions: control compound
T1 construct: Cerep
T1 sequence (P25025 1-360): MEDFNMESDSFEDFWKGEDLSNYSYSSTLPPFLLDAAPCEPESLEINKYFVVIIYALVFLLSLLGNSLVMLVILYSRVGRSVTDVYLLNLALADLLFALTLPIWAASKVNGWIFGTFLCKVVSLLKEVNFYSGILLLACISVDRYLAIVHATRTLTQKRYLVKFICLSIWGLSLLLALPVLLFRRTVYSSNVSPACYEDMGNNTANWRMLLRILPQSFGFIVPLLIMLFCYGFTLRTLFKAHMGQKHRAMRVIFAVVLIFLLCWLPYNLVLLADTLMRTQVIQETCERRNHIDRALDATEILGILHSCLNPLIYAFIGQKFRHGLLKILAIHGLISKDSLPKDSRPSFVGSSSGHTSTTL

[2] = target: Ca2+ channel (L, verapamil site); experiment: Radioligand binding; conditions: control compound
Procedure: as §1, §2

[3] = tested on: cytoplasmic free Ca2+ in P. falciparum HB3 trophozoites; experiment: Ca2+ live imaging, Fluo-4; conditions: SC compounds 10 and 20 μM; CPA 10 μM
CCR1 (h) = target: T2, CCR1 (h) (Homo sapiens, UniProt P32246); experiment: Radioligand binding; conditions: control compound
T2 construct: Cerep
T2 sequence (P32246 1-355): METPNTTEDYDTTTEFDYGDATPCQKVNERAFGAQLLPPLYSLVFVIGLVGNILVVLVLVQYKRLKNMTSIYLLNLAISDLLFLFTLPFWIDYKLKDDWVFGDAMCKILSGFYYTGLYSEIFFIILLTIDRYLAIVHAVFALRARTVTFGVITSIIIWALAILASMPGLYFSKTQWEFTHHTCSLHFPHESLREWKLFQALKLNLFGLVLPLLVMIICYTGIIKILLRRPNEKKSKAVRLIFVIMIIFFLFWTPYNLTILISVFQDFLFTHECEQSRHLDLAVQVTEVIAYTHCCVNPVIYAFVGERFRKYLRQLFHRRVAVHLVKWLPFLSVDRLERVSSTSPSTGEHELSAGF

a2 (non-selective) = experiment: Radioligand binding; conditions: control compound
Procedure: as §1, §2

a1 (non-selective) = experiment: Radioligand binding; conditions: control compound
Procedure: as §1, §2

Permeability assay = type: in vitro ADME; conditions: human; CACO 2 cells, 10 μM, apical side, 2 h
Procedure: The study was conducted by Cyprotex (Macclesfield, United Kingdom). CACO 2 cells (Sigma-Aldrich, catalogue: 86010202) were seeded on Millipore Millicell plates and formed a confluent monolayer over 20 days before the experiment. On day 20, the tested compounds at a final concentration of 10 μM were added to the apical side of the membrane. The transport of the compound across the monolayer was monitored over a 2 h period by liquid chromatography (LC)–MS/MS quantification. The permeability coefficient (Papp) was calculated from the following equation: [drawing 1] , where dQ/dt is the rate of permeation of the drug across the cells, C0 the donor compartment concentration at time zero and A the area of the cell monolayer. C0 was obtained from analysis of the dosing solution at the start of the experiment.

Plasmodium vinckei = experiment: Rodent malaria model; type: in vivo; conditions: P. vinckei, 30 mg kg-1 i.p. 1x4 days
Text: The two SC compounds were also active in the Plasmodium vinckei rodent malaria model system.

Plasmodium berghei = experiment: Rodent malaria model; type: in vivo; conditions: for Outcome: P. berghei
Procedure: This was the case for both an in vivo 4 day dosing regimen of 30 mg kg^−1 per day and an ex vivo one-cycle growth inhibition assay. […] Differential therapeutic efficacy in various rodent model systems is a well-established phenomenon and is typically associated with charged compounds, such as positively charged amidines and negatively charged phosphoric acid or carboxylic acid containing drugs. The phenomenon is explained based on selective uptake of charged compounds through parasite-induced channels, termed new permeation pathways, in the host cell plasma membrane and species-specific characteristics of the new permeation pathways.

P. chabaudi = experiment: Rodent malaria model; type: in vivo; conditions: 10 mg kg-1 i.v. 1x4 days
PK study = type: in vivo, rat; conditions: rat, plasma, po; rats
Procedure: On the treatment day, all animals were weighed and the dosing volume was calculated for each individual animal according to its actual body weight. All animal were dosed once. Blood samples were taken at different time points and plasma was collected after centrifugation (10,000g, 10 min, 4 °C). Plasma samples were analysed by LC–MS/MS. […] All relevant observations were recorded. The PK studies in cynomolgus monkeys and beagle dogs were performed by the Laboratory of Pharmacology and Toxicology (LPT), Hamburg, and PK and toxicity studies in mice and rats were performed by the 4SC Discovery GmbH, Munich. PK parameters were obtained by a non-compartment analysis, using Kinetica 4.1 (Thermo Scientific).

HepG2 cells = experiment: Cytotoxicity; conditions: 10 μM
Solubility in water = conditions: water
[4] = In vitro metabolism in liver microsomes; conditions: human microsome assay
TP (h) (TXA2/PGH2) = target: T3, TP (h) (TXA2/PGH2) (Homo sapiens, UniProt P21731); experiment: Radioligand binding; conditions: control compound
T3 construct: Cerep
T3 sequence (P21731 1-343): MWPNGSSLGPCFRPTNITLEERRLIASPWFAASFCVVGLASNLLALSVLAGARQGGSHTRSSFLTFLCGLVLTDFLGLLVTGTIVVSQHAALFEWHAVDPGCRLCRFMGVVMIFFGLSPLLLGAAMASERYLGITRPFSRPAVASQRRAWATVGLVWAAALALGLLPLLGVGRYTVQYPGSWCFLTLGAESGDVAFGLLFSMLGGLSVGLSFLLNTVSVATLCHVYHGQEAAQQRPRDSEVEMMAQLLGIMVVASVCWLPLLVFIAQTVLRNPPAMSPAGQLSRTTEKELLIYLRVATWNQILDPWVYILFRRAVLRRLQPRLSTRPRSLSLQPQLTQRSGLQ

Na+ channel (site 2) = experiment: Radioligand binding; conditions: control compound
5-HT2B (h) = target: T4, 5-HT2B (h) (Homo sapiens, UniProt P41595); experiment: Radioligand binding; conditions: control compound
T4 construct: Cerep (contract screening)
T4 sequence (P41595 whole entry): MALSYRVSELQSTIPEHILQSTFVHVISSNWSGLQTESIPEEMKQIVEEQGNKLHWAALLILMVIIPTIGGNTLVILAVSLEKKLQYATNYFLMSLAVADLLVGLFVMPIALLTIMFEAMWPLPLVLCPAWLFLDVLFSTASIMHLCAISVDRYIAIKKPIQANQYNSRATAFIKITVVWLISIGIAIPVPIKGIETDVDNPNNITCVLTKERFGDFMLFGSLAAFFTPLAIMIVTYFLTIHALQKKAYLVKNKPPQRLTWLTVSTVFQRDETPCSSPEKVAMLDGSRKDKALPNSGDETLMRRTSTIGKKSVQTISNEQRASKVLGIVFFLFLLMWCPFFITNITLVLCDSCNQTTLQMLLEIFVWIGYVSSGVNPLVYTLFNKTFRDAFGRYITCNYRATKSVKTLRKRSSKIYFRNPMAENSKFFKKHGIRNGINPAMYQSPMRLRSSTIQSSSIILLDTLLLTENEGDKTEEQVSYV
Procedure: as §1, §2

[5] = read-out: Control specific binding IC50
[6] = read-out: Control specific binding Ki

somatostatin-14: control compound of the binding panel [reference compound]
IC50 (sst (non-selective); [5]): 0.15 nM | Ki (sst (non-selective); [6]): 0.092 nM

O=C1C(O)=C([C@H]2CC[C@H](c3ccc(Cl)cc3)CC2)C(=O)c2ccccc21 [atovaquone, reference compound]
IC50 (P. falciparum strain Dd2; DD2, Dd2, Supplementary Table 11): 0.6 ± 0.1 nM | In vitro PCT99.9% ([1]; 10 times IC50, Dd2): 89 ± 7 h | In vitro lag phase ([1]; 10 times IC50, Dd2): > 24 h | In vitro logPRR ([1]; 10 times IC50, Dd2, over 48 h): 2.1±0.4 | IC50 (Dd2 SC81458 resistant): 0.3 ± 0.1 nM | IC50 (Dd2 SC83288 resistant): 0.8 ± 0.1 nM

IL-8: control compound of the binding panel [reference compound]
IC50 (CXCR2 (IL-8B) (h); [5]): 0.063 nM | Ki (CXCR2 (IL-8B) (h); [6]): 0.029 nM

COc1ccc(CCN(C)CCCC(C#N)(c2cc(OC)c(OC)c(OC)c2)C(C)C)cc1OC (stereo not shown) [D 600, reference compound]
IC50 [2, 5]: 67 nM | Ki [2, 6]: 34 nM

CC(=O)C1=C(O)[C@@H]2[C@H]3c4c[nH]c5cccc(c45)C[C@H]3C(C)(C)N2C1=O [CPA, cyclopiazonic acid, reference compound]
effect on cytoplasmic free Ca^2+ [3]: induced a strong Ca^2+ responses

MIP-1a: control compound of the binding panel [reference compound]
IC50 (CCR1 (h); [5]): 0.06 nM | Ki (CCR1 (h); [6]): 0.03 nM

COC(=O)[C@@H]1[C@H]2C[C@H]3c4[nH]c5ccccc5c4CCN3C[C@@H]2CC[C@@H]1O [yohimbine, reference compound]
IC50 (a2 (non-selective); [5]): 69 nM | Ki (a2 (non-selective); [6]): 30 nM

COc1cc2nc(N3CCN(C(=O)c4ccco4)CC3)nc(N)c2cc1OC [prazosin, reference compound]
IC50 (a1 (non-selective); [5]): 0.82 nM | Ki (a1 (non-selective); [6]): 0.22 nM

N=C(N)c1cccc(NC(=O)Nc2ccc(S(=O)(=O)NCc3ccc(S(N)(=O)=O)cc3)cc2)c1 [SC09064]
IC50 (P. falciparum strain Dd2; DD2, 72 h, Dd2, standard proliferation assay, 72 h exposure): 10 ± 3 nM | Papp at 2 h, 10 μM (Permeability assay): 0.28 ×10⁻⁶ cm/s | Outcome (Plasmodium vinckei): inactive | Outcome (Plasmodium berghei; 10 mg kg-1 i.v. 1x4 days): inactive | Outcome (Plasmodium berghei; 50 mg kg-1 i.p. 1x4 days): inactive | activity against P. berghei (Plasmodium berghei; in vivo): no activity | Outcome (P. chabaudi): inactive | bioavailability (PK study): 3% | Ames test (Ames test): negative | adverse effects on HepG2 cells (HepG2 cells): no adverse effects | solubility (Solubility in water): 316 µg/mL (≈ 629 µM) | metabolic stability, residual after 1 h of incubation [4]: 65%

CCCCC[C@H](O)/C=C/[C@H]1[C@@H]2CO[C@@H](C2)[C@@H]1C/C=C\CCCC(=O)O [U 44069, reference compound]
IC50 (TP (h) (TXA2/PGH2); [5]): 14 nM | Ki (TP (h) (TXA2/PGH2); [6]): 6.2 nM

COc1ccc(C(=O)O[C@H]2CC[C@@]3(C)[C@@H]4CC[C@H]5[C@]6(O)C[C@H](O)[C@@]7(O)[C@@H](CN8C[C@@H](C)CC[C@H]8[C@@]7(C)O)[C@]6(O)C[C@@]53O[C@]24O)cc1OC [veratridine, reference compound]
IC50 (Na+ channel (site 2); [5]): 10000 nM | Ki (Na+ channel (site 2); [6]): 9000 nM

COc1cc(CC(C)N)c(OC)cc1I (racemic) [(±)DOI, reference compound]
IC50 (5-HT2B (h); [5]): 5.1 nM | Ki (5-HT2B (h); [6]): 4.6 nM
